Test results: patent US10780067B2, “Endoxifen for local transdermal therapy to the breast” (Northwestern University, priority 2016, dated 2020)
Where “and” joins values, the source holds several entries; their conditions need not be identical. Identical values can stand only once.

Experiments:
DCIS lesions = assay: Ki-67 labeling index by immunohistochemistry, phase II presurgical trial of 4-OHT gel vs oral tamoxifen; type: in vivo, human; details: for Ki-67 baseline: Ki-67 LI of DCIS lesions before treatment
Source text: Women at risk for thromboembolic disease were excluded, as were those with a history of exogenous hormone use within the past month, and tamoxifen or raloxifene use within the past two years. Randomization was stratified by menopausal status, and enrollment site. Initially, the FDA required exclusions for grade 3 and comedo-type DCIS, mammographic DCIS size of >5 cm, and palpable lesions; these were removed following enrollment of nine subjects in the first year.
(§1) All participants provided informed consent. Baseline assessments included a history and physical, explanation of gel application, completion of the Breast Cancer Prevention Trial Eight Symptom Scale (BESS) questionnaire, collection of a venous blood sample, and collection of nipple aspirate fluid (NAF) from NAF yielders. […] Treatment began within 5 days post-randomization and ended on the day prior to surgical resection. Participants were instructed to apply the gel to the entire skin envelope of each breast each morning, after a shower. Duration of therapy was 6-10 weeks. Compliance was assessed through participant diaries, counts of returned pills and of returned gel canisters. Participants who took at least 80% of the prescribed dose were considered compliant.
(§2) Assessments similar to those performed at baseline were repeated on the day prior to, or on the morning of surgery. During surgery, breast adipose tissue from the surgical sample was snap frozen and stored at −80° C. for measurement of tamoxifen and metabolites. The samples were obtained from a location adjacent to the DCIS lesion to provide uniformity between participants undergoing breast conservation and mastectomy. The paraffin block of the core and excision samples were acquired by the recruiting institution and 10 sections from each specimen were submitted to the NU Pathology Core Facility. The sections were cut in batches (with pre- and post-treatment samples in the same batch), shipped cold, and processed for immunohistochemistry within four weeks.
Secondary endpoints were 1) to compare concentrations of tamoxifen and its metabolites [4-OHT, endoxifen, N-desmethyl tamoxifen (NDT)] in breast tissue, plasma and NAF obtained on the day of surgery; 2) to assess changes in known tamoxifenmodulated pathways in the breast (COX-2 and maspin protein expression, [19,20]) and plasma (SHBG, IGF-1 [14]). Side effect endpoints were 1) the incidence of hot flashes at baseline and before surgery; 2) changes in coagulation related proteins in women on the gel and the oral arms from baseline to immediately before surgery.
Immunohistochemical (IHC) assessment of these markers was performed on paraffin embedded sections of the core and excision specimens, using standard IHC techniques and MCF7, HCT116 and H292 cells as controls. For maspin we used primary mouse monoclonal antibody (Clone-G167-70,BD Pharmingen, San Jose, Calif.), dilution 1:200; for COX-2, primary mouse monoclonal antibody (Clone-CX-294, Dako, Denmark), dilution 1:100-; and for Ki67, primary mouse monoclonal antibody (Clone-MIB-1, Dako, Denmark), dilution 1:100-antigen. Dako Envision Plus system HRP labeled polymer for 20 min at 37° C. was used as the detection system. Scoring was performed on DCIS lesions only, with manual counting of positively stained DCIS cells. The Ki67 LI was assessed on an average of 300 DCIS cells at 40× magnification. The H score system (Score range: 0-300) was used for COX-2 and maspin markers by a single observer who was blinded to treatment status, with random verification of 20% of slides by a pathologist (PK).

[1] = Plasma, breast adipose tissue and NAF concentrations of tamoxifen and its metabolites (LC-MS/MS), presurgical trial; type: in vivo, human
Source text: as §1, §2
(Z)-tamoxifen, (Z)-NDT, (E) and (Z)-4-OHT, and (Z)-endoxifen were measured by liquid chromatography-tandem mass spectrometry with a turbo ion spray interface operating in positive mode (API 3000; AB SCIEX, Foster City, Calif.). […] For analysis of NAF, samples were collected in a capillary tube and diluted with 200 μL of phosphate buffered saline; 100 μL of the diluted NAF sample was used for analysis. Breast adipose tissue samples, 25 mg, were minced and treated with 125 μL of […] and extracted as described above.
Retention times for (Z)-tamoxifen, (Z)-NDT, (Z)-4-OHT, (E)-4-OHT and (Z)-endoxifen were 7.3, 6.8, 5.1, 4.7 and 4.5 min, respectively. […] In three participants, matched samples were not available: breast adipose tissue was not collected in two, and the plasma sample was missing in one.
Since the fraction of E and Z isoforms of 4-OHT was of particular interest, we used an additional validated method to study plasma concentrations of these metabolites in a different laboratory (Eurofins Medinet, Chantilly, Va.): Plasma from blood samples collected in lithium-heparin tubes was frozen at −20° C., shipped in batches on dry ice to them Eurofins Medinet central laboratory; LC-MS/MS was used for the simultaneous determination of (E) 4-OHT and (Z) 4-OHT, with a lower limit of quantitation (LOQ) of 10 pg/mL and upper LOQ of 10,000 pg/mL. Eurofins Medinet developed and validated them method for BHR Pharma, in accordance with the FDA Guidance on Bioanalytical Method Validation.

IGF-1 = assay: Plasma IGF-1 ELISA, presurgical trial; type: in vivo, human; details: mean ± SD
Procedure: (§3) Plasma samples collected with anticoagulant K3-EDTA were used for human IGF-1 and SHBG assays, and coagulation protein assays (factor VIII, factor IX, von Willebrand factor, and protein S)[23]. The human IGF-1 and SHBG assays were performed with Quantikine Enzyme-linked immunosorbent assay (ELISA) Kits (R&D Systems, Cat # DG100 for IGF-1, and Cat # DSHBGO for SHBG assay). The lower limit of detection was 56 pg/ml, and 5 pmol/L; % CV values were 4.3 and 5.6 for IGF-1, and SHBG assay, respectively. Factor VIII, and factor IX were determined with VisuLize™ antigen ELISA kits (Affinity Biologicals Inc.). von Willebrand factor was measured with immune-turbidimetric assay (Diagnostica Stago Inc. Cat #00518) by STAR analyzer, and total protein S was assayed with an ELISA kit (REAADSR Inc.)

SHBG = assay: Plasma SHBG ELISA, presurgical trial; type: in vivo, human; details: mean ± SD
Procedure: as §3

factor VIII = assay: Plasma factor VIII antigen ELISA, presurgical trial; type: in vivo, human; details: mean ± SD
Procedure: as §3

total protein S = assay: Plasma total protein S ELISA, presurgical trial; type: in vivo, human; details: mean ± SD
Procedure: as §3

MCF7 xenograft = details: simulation using human PK; cited from earlier work
[2] = at surgery after 6-10 weeks, mean ± SD, LLOQ 3 ng/g

Q: Which Ki-67 post-treatment (DCIS lesions; Ki-67 LI of DCIS lesions after 6-10 weeks, mean ± SD) does the source give for `CC/C(=C(\c1ccccc1)c1ccc(OCCN(C)C)cc1)c1ccccc1` [Tamoxifen, (Z)-tamoxifen] here?
A: 3.2 ± 2.3%

Q: And the Ki-67 baseline (DCIS lesions; mean ± SD)?
A: 8.3%

Q: What about the Ki-67 baseline (DCIS lesions; mean ± SD, listed as Oral-T) of the same compound?
A: 8.3 ± 5.2%

Q: And the “Ki-67 Changes from baseline” value (DCIS lesions; Ki-67 LI of DCIS lesions, 6-10 weeks, mean ± SD)?
A: −5.1 ± 5.5%

Q: And the “mean reduction of Ki-67 LI post-therapy” value (DCIS lesions; decrease from baseline in DCIS lesions, 6-10 weeks)?
A: 5.1%

Q: And the “drop in Ki67-LI relative to baseline” value (DCIS lesions; relative decrease, DCIS lesions)?
A: 61%

Q: What about the “(E) 4-OHT concentration, plasma” value ([1]; after 6-10 weeks, mean ± SD, LLOQ 1 ng/mL) of the same compound?
A: BQL

Q: And the “(Z) Tamoxifen concentration, plasma” value ([1]; after 6-10 weeks, mean ± SD, LLOQ 20 ng/mL)?
A: 90 ± 45 ng/mL

Q: What about the “(E) 4-OHT concentration, breast adipose tissue” value [1, 2] of the same compound?
A: BQL

Q: What about the “(Z) Tamoxifen concentration, breast adipose tissue” value [1, 2] of the same compound?
A: 2959 ± 1035 ng/g

Q: And the “plasma concentration of tamoxifen, individual participants” value ([1]; participants A, B and one with undetectable NAF levels, listed as oral-T)?
A: 54 ng/mL and 94.3 ng/mL and 160 ng/mL

Q: What about the “NAF concentration of endoxifen” value ([1]; post-treatment nipple aspirate fluid) of the same compound?
A: undetectable

Q: And the “NAF concentration of tamoxifen, individual participants” value ([1]; post-treatment nipple aspirate fluid, participants A, B, listed as oral-T)?
A: 320 ng/mL and 182 ng/mL

Q: And the “NAF concentration of 4-OHT ((Z) 4-OHT), individual participants” value ([1]; post-treatment nipple aspirate fluid, participants C, D)?
A: undetectable

Q: What about the IGF-1 post-treatment (IGF-1; plasma after 6-10 weeks) of the same compound?
A: 50.3 ± 9.7 ng/mL

Q: And the IGF-1 baseline (IGF-1; plasma before treatment)?
A: 59.0 ± 11.4 ng/mL

Q: What about the “IGF-1 Changes from baseline” value (IGF-1; plasma) of the same compound?
A: -8.7 ± 8.3 ng/mL

Q: What about the SHBG post-treatment (SHBG; plasma after 6-10 weeks) of the same compound?
A: 143.9 ± 69.0 ng/mL

Q: What about the SHBG baseline (SHBG; plasma before treatment) of the same compound?
A: 98.4 ± 45.0 ng/mL

Q: And the “SHBG Changes from baseline” value (SHBG; plasma)?
A: 45.5 ± 40.2 ng/mL

Q: What about the “% Factor VIII post-treatment” value (factor VIII; plasma after 6-10 weeks) of the same compound?
A: 168.7 ± 51.6%

Q: What about the “% Factor VIII baseline” value (factor VIII; plasma before treatment) of the same compound?
A: 157.1 ± 47.5%

Q: What about the “% Factor VIII Changes from baseline” value (factor VIII; plasma) of the same compound?
A: 11.6 ± 17.3%

Q: And the “% Total Protein S post-treatment” value (total protein S; plasma after 6-10 weeks)?
A: 91.6 ± 12.2%

Q: And the “% Total Protein S baseline” value (total protein S; plasma before treatment)?
A: 94.3 ± 8.9%

Q: What about the “% Total Protein S Changes from baseline” value (total protein S; plasma) of the same compound?
A: −2.7 ± 9.3%

Q: What about the “TGI at day 21, 20 mg/day oral” value (MCF7 xenograft) of the same compound?
A: 63%
